According to patent US20230167467A1, “METHODS AND COMPOSITIONS FOR THE PRODUCTION OF ISOBUTENE” (University of Alaska Anchorage, priority 2020, published 2023):

Tested on: Engineered strains of E. coli
Format: cell-based
Conditions: for change in expression of gene adiA / change in expression of gene adiC / change in expression of gene adiY / change in expression of gene bhsA / change in expression of gene bssR / change in expression of gene bssS / change in expression of gene clpA / change in expression of gene clpB / change in expression of gene clpP / change in expression of gene coaA / change in expression of gene coaD / change in expression of gene cspA / change in expression of gene cspB / change in expression of gene cspC / change in expression of gene cspD / change in expression of gene cspE / change in expression of gene cspF / change in expression of gene dhaK / change in expression of gene dhaL / change in expression of gene dnaJ / change in expression of gene dnaK / change in expression of gene fabA / change in expression of gene fabB / change in expression of gene fabD / change in expression of gene flgA / change in expression of gene flgB / change in expression of gene flgC / change in expression of gene flgD / change in expression of gene flgE / change in expression of gene flgF / change in expression of gene flgG / change in expression of gene flgH / change in expression of gene gabD / change in expression of gene gabP / change in expression of gene gabT / change in expression of gene gadA / change in expression of gene gadB / change in expression of gene gadC / change in expression of gene gadE / change in expression of gene gadW / change in expression of gene gadX / change in expression of gene gadY / change in expression of gene glpA / change in expression of gene glpB / change in expression of gene glpC / change in expression of gene groL / change in expression of gene groS / change in expression of gene hchA / change in expression of gene hslJ / change in expression of gene hslO / change in expression of gene hslR / change in expression of gene hslU / change in expression of gene hslV / change in expression of gene ibpA / change in expression of gene ibpB / change in expression of gene lhgO / change in expression of gene lipA / change in expression of gene lipB / change in expression of gene narG / change in expression of gene narH / change in expression of gene narI / change in expression of gene narJ / change in expression of gene narK / change in expression of gene potA / change in expression of gene potB / change in expression of gene potC / change in expression of gene pspA / change in expression of gene pspB / change in expression of gene rpoA / change in expression of gene rpoB / change in expression of gene rpoC / change in expression of gene rpoD / change in expression of gene rpoE / change in expression of gene rpoH / change in expression of gene rpoN / change in expression of gene rpoS / change in expression of gene rpoZ / change in expression of gene spy / change in expression of gene tatA / change in expression of gene tatB / change in expression of gene tatC / change in expression of gene tatD / change in expression of gene tatE: after solvent exposure, vs positive control; for number of genes with significant changes in expression: vs control, Bon Ferroni corrected p-value<0.05

Compound: CCCCCC [hexane]
- expression of acid resistance genes (gad, adi families): downregulated
- expression of chaperone proteins groLS, spy, and dnaJK: highly upregulated
- expression of dihydroxyacetone kinase genes dhaKLM: upregulated
- expression of flagellar protein synthesis and assembly genes: downregulated
- expression of gadE and adiY: significantly downregulated
- expression of galactitol metabolism genes gatABD: upregulated
- expression of glpABC (glycerol to glycerone phosphate): upregulated
- expression of heat shock proteins and chaperones hslJORUV: strongest increases
- expression of ibpAB and clpAB (protein protection and repair): strongest increases
- expression of marABC (multiple antibiotic resistance): upregulated
- expression of nitrate reductase genes narGHJKP: upregulated
- expression of phage shock genes pspABCDE: highly upregulated
- change in expression of gene adiA: −4.64 ± 0.88
- change in expression of gene adiC: −4.53 ± 1.04
- change in expression of gene adiY: −3.19 ± 0.66
- change in expression of gene bhsA: 3.01 ± 0.60
- change in expression of gene bssR: 1.50 ± 0.44
- change in expression of gene bssS: 5.47 ± 0.84
- change in expression of gene clpA: 2.49 ± 0.63
- change in expression of gene clpB: 5.02 ± 0.69
- change in expression of gene clpP: 1.52 ± 0.59
- change in expression of gene coaA: −2.34 ± 0.88
- change in expression of gene coaD: 0.57 ± 0.90
- change in expression of gene cspA: −4.08 ± 0.57
- change in expression of gene cspB: −4.25 ± 1.30
- change in expression of gene cspC: −2.22 ± 0.90
- change in expression of gene cspD: 2.07 ± 0.57
- change in expression of gene cspE: −0.53 ± 0.63
- change in expression of gene cspF: −3.67 ± 1.04
- change in expression of gene dhaK: 3.83 ± 0.58
- change in expression of gene dhaL: 2.77 ± 0.62
- change in expression of gene dnaJ: 4.46 ± 0.69
- change in expression of gene dnaK: 4.31 ± 0.66
- change in expression of gene fabA: −0.96 ± 0.75
- change in expression of gene fabB: 2.15 ± 0.66
- change in expression of gene fabD: −0.89 ± 0.52
- change in expression of gene flgA: −2.91 ± 1.55
- change in expression of gene flgB: −6.86 ± 1.62
- change in expression of gene flgC: −7.12 ± 2.02
- change in expression of gene flgD: −6.97 ± 1.94
- change in expression of gene flgE: −5.83 ± 1.20
- change in expression of gene flgF: −5.93 ± 1.66
- change in expression of gene flgG: −5.59 ± 1.51
- change in expression of gene flgH: −4.58 ± 1.75
- change in expression of gene gabD: −1.81 ± 1.34
- change in expression of gene gabP: −3.20 ± 1.33
- change in expression of gene gabT: −1.73 ± 1.30
- change in expression of gene gadA: −1.47 ± 0.68
- change in expression of gene gadB: −0.69 ± 0.80
- change in expression of gene gadC: −0.25 ± 0.80
- change in expression of gene gadE: −2.22 ± 0.60
- change in expression of gene gadW: −4.92 ± 0.97
- change in expression of gene gadX: −2.95 ± 0.57
- change in expression of gene gadY: −5.22 ± 0.81
- change in expression of gene glpA: 7.69 ± 0.87
- change in expression of gene glpB: 5.40 ± 0.63
- change in expression of gene glpC: 6.04 ± 0.79
- change in expression of gene groL: 4.16 ± 0.57
- change in expression of gene groS: 4.25 ± 0.50
- change in expression of gene hchA: 0.77 ± 0.60
- change in expression of gene hslJ: 2.29 ± 0.65
- change in expression of gene hslO: 3.04 ± 0.64
- change in expression of gene hslR: 3.21 ± 0.65
- change in expression of gene hslU: 3.61 ± 0.55
- change in expression of gene hslV: 2.94 ± 0.61
- change in expression of gene ibpA: 7.63 ± 1.21
- change in expression of gene ibpB: 8.41 ± 1.50
- change in expression of gene lhgO: −1.20 ± 1.67
- change in expression of gene lipA: 0.42 ± 0.59
- change in expression of gene lipB: −0.05 ± 0.63
- change in expression of gene narG: 4.03 ± 0.65
- change in expression of gene narH: 3.23 ± 0.61
- change in expression of gene narI: 2.02 ± 0.92
- change in expression of gene narJ: 2.26 ± 0.68
- change in expression of gene narK: 2.20 ± 0.84
- change in expression of gene potA: −2.87 ± 0.80
- change in expression of gene potB: −2.22 ± 1.29
- change in expression of gene potC: −1.06 ± 1.18
- change in expression of gene pspA: 8.97 ± 0.55
- change in expression of gene pspB: 7.11 ± 0.68
- change in expression of gene rpoA: 0.76 ± 0.44
- change in expression of gene rpoB: 0.54 ± 0.40
- change in expression of gene rpoC: 1.02 ± 0.39
- change in expression of gene rpoD: 3.14 ± 0.70
- change in expression of gene rpoE: −2.64 ± 0.62
- change in expression of gene rpoH: 0.31 ± 0.52
- change in expression of gene rpoN: −1.24 ± 0.49
- change in expression of gene rpoS: 0.42 ± 0.47
- change in expression of gene rpoZ: −0.98 ± 0.53
- change in expression of gene spy: 4.12 ± 0.87
- change in expression of gene tatA: −0.89 ± 0.51
- change in expression of gene tatB: −0.66 ± 0.58
- change in expression of gene tatC: −1.03 ± 1.08
- change in expression of gene tatD: −2.65 ± 1.13
- change in expression of gene tatE: 0.78 ± 0.63
- number of genes with significant changes in expression: 535 genes

Compound: CCC(C)CC [3-methylpentane]
- expression of acid resistance genes (gad, adi families): downregulated
- expression of chaperone proteins groLS, spy, and dnaJK: highly upregulated
- expression of dihydroxyacetone kinase genes dhaKLM: upregulated
- expression of flagellar protein synthesis and assembly genes: downregulated
- expression of gadE and adiY: significantly downregulated
- expression of galactitol metabolism genes gatABD: upregulated
- expression of glpABC (glycerol to glycerone phosphate): upregulated
- expression of heat shock proteins and chaperones hslJORUV: strongest increases
- expression of ibpAB and clpAB (protein protection and repair): strongest increases
- expression of marABC (multiple antibiotic resistance): upregulated
- expression of nitrate reductase genes narGHJKP: upregulated
- expression of phage shock genes pspABCDE: highly upregulated
- change in expression of gene adiA: −2.19 ± 0.86
- change in expression of gene adiC: −1.60 ± 1.02
- change in expression of gene adiY: −2.88 ± 0.66
- change in expression of gene bhsA: 2.98 ± 0.60
- change in expression of gene bssR: 1.81 ± 0.44
- change in expression of gene bssS: 5.42 ± 0.84
- change in expression of gene clpA: 2.69 ± 0.63
- change in expression of gene clpB: 5.30 ± 0.69
- change in expression of gene clpP: 1.74 ± 0.59
- change in expression of gene coaA: −1.35 ± 0.88
- change in expression of gene coaD: 1.13 ± 0.90
- change in expression of gene cspA: −4.58 ± 0.58
- change in expression of gene cspB: −4.38 ± 1.31
- change in expression of gene cspC: −2.37 ± 0.90
- change in expression of gene cspD: 2.53 ± 0.57
- change in expression of gene cspE: −0.36 ± 0.63
- change in expression of gene cspF: −3.22 ± 1.04
- change in expression of gene dhaK: 4.32 ± 0.58
- change in expression of gene dhaL: 3.43 ± 0.62
- change in expression of gene dnaJ: 5.07 ± 0.69
- change in expression of gene dnaK: 4.55 ± 0.66
- change in expression of gene fabA: −0.74 ± 0.75
- change in expression of gene fabB: 2.87 ± 0.66
- change in expression of gene fabD: −0.97 ± 0.52
- change in expression of gene flgA: −1.37 ± 1.53
- change in expression of gene flgB: −3.25 ± 1.50
- change in expression of gene flgC: −4.33 ± 1.93
- change in expression of gene flgD: −3.56 ± 1.87
- change in expression of gene flgE: −2.72 ± 1.17
- change in expression of gene flgF: −2.66 ± 1.57
- change in expression of gene flgG: −3.06 ± 1.48
- change in expression of gene flgH: −2.28 ± 1.70
- change in expression of gene gabD: 0.24 ± 1.31
- change in expression of gene gabP: 1.14 ± 1.28
- change in expression of gene gabT: 0.62 ± 1.27
- change in expression of gene gadA: −1.66 ± 0.69
- change in expression of gene gadB: −1.26 ± 0.80
- change in expression of gene gadC: −0.31 ± 0.80
- change in expression of gene gadE: −2.58 ± 0.60
- change in expression of gene gadW: −2.78 ± 0.95
- change in expression of gene gadX: −2.92 ± 0.57
- change in expression of gene gadY: −4.93 ± 0.81
- change in expression of gene glpA: 8.12 ± 0.87
- change in expression of gene glpB: 5.89 ± 0.63
- change in expression of gene glpC: 6.69 ± 0.79
- change in expression of gene groL: 4.27 ± 0.57
- change in expression of gene groS: 4.18 ± 0.50
- change in expression of gene hchA: 1.65 ± 0.60
- change in expression of gene hslJ: 2.40 ± 0.65
- change in expression of gene hslO: 3.37 ± 0.64
- change in expression of gene hslR: 3.53 ± 0.65
- change in expression of gene hslU: 3.65 ± 0.55
- change in expression of gene hslV: 3.32 ± 0.61
- change in expression of gene ibpA: 8.01 ± 1.21
- change in expression of gene ibpB: 9.01 ± 1.50
- change in expression of gene lhgO: 1.21 ± 1.64
- change in expression of gene lipA: 0.26 ± 0.60
- change in expression of gene lipB: 0.71 ± 0.63
- change in expression of gene narG: 4.24 ± 0.65
- change in expression of gene narH: 3.41 ± 0.61
- change in expression of gene narI: 2.28 ± 0.92
- change in expression of gene narJ: 2.34 ± 0.68
- change in expression of gene narK: 2.75 ± 0.84
- change in expression of gene potA: −2.43 ± 0.80
- change in expression of gene potB: −0.51 ± 1.28
- change in expression of gene potC: −0.27 ± 1.18
- change in expression of gene pspA: 9.23 ± 0.55
- change in expression of gene pspB: 7.09 ± 0.68
- change in expression of gene rpoA: 0.54 ± 0.44
- change in expression of gene rpoB: 0.33 ± 0.40
- change in expression of gene rpoC: 0.70 ± 0.39
- change in expression of gene rpoD: 3.38 ± 0.70
- change in expression of gene rpoE: −2.07 ± 0.62
- change in expression of gene rpoH: 0.71 ± 0.52
- change in expression of gene rpoN: −1.28 ± 0.49
- change in expression of gene rpoS: 0.53 ± 0.47
- change in expression of gene rpoZ: −1.07 ± 0.53
- change in expression of gene spy: 4.73 ± 0.87
- change in expression of gene tatA: −1.05 ± 0.51
- change in expression of gene tatB: −0.93 ± 0.58
- change in expression of gene tatC: −0.35 ± 1.08
- change in expression of gene tatD: −1.73 ± 1.12
- change in expression of gene tatE: 0.79 ± 0.63
- number of genes with significant changes in expression: 414 genes
